Laboratory results reported in patent US20190231751A1, “TREATMENT OF FIBROTIC DISORDERS WITH JUN N-TERMINAL KINASE INHIBITORS” (Imago Pharmaceuticals, Inc., priority 2016, published 2019).

Key:
Format in all cases: biochemical
JNK2 = JNK2 (Homo sapiens, UniProt P45984); assay: In vitro JNK2 inhibition (Table 1)
Procedure: (§1) In vitro assays for the determination of JNK activities are known in the art and exemplary assay formats are described herein.
(§2) IC50 values in Table 1 were determined using the procedures as described in U.S. Pat. No. 8,450,353.

JNK3 = JNK3 (Homo sapiens, UniProt P53779); assay: In vitro JNK3 inhibition (Table 1)
Procedure: as §1, §2

JNK1 = JNK1 (Homo sapiens, UniProt P45983); assay: In vitro JNK1 inhibition (Table 1)
Procedure: as §1, §2

Sequence of JNK2 (P45984 whole entry, species assumed): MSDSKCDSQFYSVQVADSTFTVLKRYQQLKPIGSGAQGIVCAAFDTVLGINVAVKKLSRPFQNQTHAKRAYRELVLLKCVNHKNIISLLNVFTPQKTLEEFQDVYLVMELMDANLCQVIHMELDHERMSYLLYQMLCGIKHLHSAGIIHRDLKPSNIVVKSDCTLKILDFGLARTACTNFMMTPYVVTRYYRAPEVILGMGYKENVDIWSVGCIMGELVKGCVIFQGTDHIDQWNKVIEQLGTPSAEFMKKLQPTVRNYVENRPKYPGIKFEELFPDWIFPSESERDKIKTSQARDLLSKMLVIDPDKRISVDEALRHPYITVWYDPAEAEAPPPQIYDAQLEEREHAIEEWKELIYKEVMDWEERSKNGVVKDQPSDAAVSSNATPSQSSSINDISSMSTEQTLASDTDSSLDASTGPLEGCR
Sequence of JNK3 (P53779 whole entry, species assumed): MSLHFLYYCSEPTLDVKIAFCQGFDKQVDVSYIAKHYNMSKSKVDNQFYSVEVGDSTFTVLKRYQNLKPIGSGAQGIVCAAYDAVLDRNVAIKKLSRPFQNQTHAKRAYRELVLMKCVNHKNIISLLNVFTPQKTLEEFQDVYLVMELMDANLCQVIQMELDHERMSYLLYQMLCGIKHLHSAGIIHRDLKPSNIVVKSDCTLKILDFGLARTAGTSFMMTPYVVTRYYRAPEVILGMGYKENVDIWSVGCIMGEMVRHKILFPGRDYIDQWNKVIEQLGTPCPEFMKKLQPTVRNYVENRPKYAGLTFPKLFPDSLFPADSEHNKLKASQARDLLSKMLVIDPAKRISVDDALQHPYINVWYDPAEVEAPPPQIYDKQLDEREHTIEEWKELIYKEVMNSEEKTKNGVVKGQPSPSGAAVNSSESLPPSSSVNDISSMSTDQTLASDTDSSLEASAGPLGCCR
Sequence of JNK1 (P45983 whole entry, species assumed): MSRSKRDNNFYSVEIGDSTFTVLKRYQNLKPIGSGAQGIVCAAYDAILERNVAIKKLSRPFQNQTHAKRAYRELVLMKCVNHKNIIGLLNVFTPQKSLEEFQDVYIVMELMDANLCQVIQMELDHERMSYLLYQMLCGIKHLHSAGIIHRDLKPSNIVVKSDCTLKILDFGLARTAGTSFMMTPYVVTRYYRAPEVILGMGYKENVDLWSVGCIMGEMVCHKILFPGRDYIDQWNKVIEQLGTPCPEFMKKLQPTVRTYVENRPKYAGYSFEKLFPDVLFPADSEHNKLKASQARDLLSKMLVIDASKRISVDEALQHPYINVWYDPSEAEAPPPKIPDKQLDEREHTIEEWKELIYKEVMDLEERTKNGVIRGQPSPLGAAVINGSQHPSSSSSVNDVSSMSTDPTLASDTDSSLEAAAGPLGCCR

| SMILES | IC50 (JNK2) [nM] | IC50 (JNK3) [nM] | IC50 (JNK1) [nM] |
| --- | --- | --- | --- |
| COc1ccc(CC(=O)Nc2ccsc2-n2cc(C)cn2)cc1 [2-(4-methoxyphenyl)-N-(2-(4-methyl-1H-pyrazol-1-yl)thiophen-3-yl)acetamide] | 10000 to 50000 | – | – |
| COc1ccc(CC(=O)Nc2ccsc2-c2ncco2)cc1 [2-(4-methoxyphenyl)-N-(2-(oxazol-2-yl)thiophen-3-yl)acetamide] | 10000 to 50000 | – | – |
| COc1ccc(CC(=O)Nc2sccc2-c2nnn(C)n2)cc1 [2-(4-methoxyphenyl)-N-(3-(2-methyl-2H-tetrazol-5-yl)thiophen-2-yl)acetamide] | 10000 to 50000 | – | – |
| O=C(Cn1c(=O)ccc2cc(Br)ccc21)Nc1scc(Br)c1-c1nc[nH]n1 [2-(6-bromo-2-oxoquinolin-1(2H)-yl)-N-(4-bromo-3-(1H-1,2,4-triazol-3-yl)thiophen-2-yl)acetamide] | < 100 | < 100 | < 100 |
| O=C(Cn1c(=O)ccc2cc(Br)ccc21)Nc1scc(Cl)c1-c1nc[nH]n1 [2-(6-bromo-2-oxoquinolin-1(2H)-yl)-N-(4-chloro-3-(1H-1,2,4-triazol-3-yl)thiophen-2-yl)acetamide] | < 100 | < 100 | < 100 |
| COc1nc(-c2sccc2NC(=O)Cc2cccc3cnccc23)cs1 [2-(isoquinolin-5-yl)-N-(2-(2-methoxythiazol-4-yl)thiophen-3-yl)acetamide] | 10000 to 50000 | – | – |
| Cn1ncnc1-c1ncsc1NC(=O)Cc1cccc2cnccc12 [2-(isoquinolin-5-yl)-N-(4-(1-methyl-1H-1,2,4-triazol-5-yl)thiazol-5-yl)acetamide] | 100 to 10000 | – | – |
| O=C(Cn1c(=O)ccc2ncccc21)Nc1scc(Br)c1-c1ncn[nH]1 [IGP002, N-(4-bromo-3-(1H-1,2,4-triazol-5-yl)thiophen-2-yl)-2-(2-oxo-1,5-naphthyridin-1(2H)-yl)acetamide] | < 100 | < 100 | < 100 |
| O=C(Cc1cccc2ccccc12)Nc1ccsc1-c1nnco1 [N-(2-(1,3,4-oxadiazol-2-yl)thiophen-3-yl)-2-(naphthalen-1-yl)acetamide] | 10000 to 50000 | – | – |
| O=C(Cc1ccc2c(c1)OCCO2)Nc1ccsc1-c1ncn[nH]1 [N-(2-(1H-1,2,4-triazol-5-yl)thiophen-3-yl)-2-(2,3-dihydrobenzo[b][1,4]dioxin-6-yl)acetamide] | 100 to 10000 | – | – |
| O=C(CN1C(=O)CCc2ccccc21)Nc1ccsc1-c1c[nH]cn1 [N-(2-(1H-imidazol-4-yl)thiophen-3-yl)-2-(2-oxo-3,4-dihydroquinolin-1(2H)-yl)acetamide] | 10000 to 50000 | – | – |
| O=C(Cc1cccc2cnccc12)Nc1ccsc1-c1csc(Cl)n1 [N-(2-(2-chlorothiazol-4-yl)thiophen-3-yl)-2-(isoquinolin-5-yl)acetamide] | 10000 to 50000 | – | – |
| COc1ccc(CC(=O)Nc2ccsc2-c2nc(N)n[nH]2)cc1 [N-(2-(3-amino-1H-1,2,4-triazol-5-yl)thiophen-3-yl)-2-(4-methoxyphenyl)acetamide] | 100 to 10000 | – | – |
| Cc1n[nH]c(-c2sccc2NC(=O)Cc2ccc(N3CCCC3=O)cc2)n1 [N-(2-(3-methyl-H-1,2,4-triazol-5-yl)thiophen-3-yl)-2-(4-(2-oxopyrrolidin-1-yl)phenyl)acetamide] | 100 to 10000 | – | – |
| COc1ccc(CC(=O)Nc2ccsc2-c2nc(C(C)(C)C)n[nH]2)cc1 [N-(2-(3-tert-butyl-1H-1,2,4-triazol-5-yl)thiophen-3-yl)-2-(4-methoxyphenyl)acetamide] | 10000 to 50000 | – | – |
| Cc1nnc(-c2sccc2NC(=O)Cc2cccc3ccccc23)o1 [N-(2-(5-methyl-1,3,4-oxadiazol-2-yl)thiophen-3-yl)-2-(naphthalen-1-yl)acetamide] | 10000 to 50000 | – | – |
| COc1ccc(CC(=O)Nc2sccc2-c2nn[nH]n2)cc1 [N-(3-(2H-tetrazol-5-yl)thiophen-2-yl)-2-(4-methoxyphenyl)-acetamide] | 10000 to 50000 | – | – |
| Cc1csc(NC(=O)Cc2cccc3cnccc23)c1-c1nc2ccccc2s1 [N-(3-(benzo[d]thiazol-2-yl)-4-methylthiophen-2-yl)-2-(isoquinolin-5-yl)acetamide] | 10000 to 50000 | – | – |
| Cn1cnc(-c2c(Br)csc2NC(=O)CN2C(=O)CCc3ncccc32)n1 [N-(4-bromo-3-(1-methyl-1H-1,2,4-triazol-3-yl)thiophen-2-yl)-2-(2-oxo-3,4-dihydro-1,5-naphthyridin-1(2H)-yl)acetamide] | < 100 | < 100 | < 100 |

| SMILES | IC50 (JNK2) [nM] | IC50 (JNK3) [nM] | IC50 (JNK1) [nM] |
| --- | --- | --- | --- |
| O=C(Cc1cccc2ncc(F)cc12)Nc1scc(Br)c1-c1nc[nH]n1 [N-(4-bromo-3-(1H-1,2,4-triazol-3-yl)thiophen-2-yl)-2-(3-fluoroquinolin-5-yl)acetamide] | < 100 | < 100 | < 100 |
| O=C(Cn1c(=O)ccc2cnccc21)Nc1scc(Br)c1-c1ncn[nH]1 [N-(4-bromo-3-(1H-1,2,4-triazol-5-yl)thiophen-2-yl)-2-(2-oxo-1,6-naphthyridin-1(2H)-yl)acetamide] | < 100 | < 100 | < 100 |
| O=C(CN1C(=O)CCc2ncccc21)Nc1scc(Br)c1-c1ncn[nH]1 [N-(4-bromo-3-(1H-1,2,4-triazol-5-yl)thiophen-2-yl)-2-(2-oxo-3,4-dihydro-1,5-naphthyridin-1(2H)-yl)acetamide] | < 100 | < 100 | < 100 |
| O=C(CN1C(=O)CCc2cnccc21)Nc1scc(Br)c1-c1ncn[nH]1 [N-(4-bromo-3-(1H-1,2,4-triazol-5-yl)thiophen-2-yl)-2-(2-oxo-3,4-dihydro-1,6-naphthyridin-1(2H)-yl)acetamide] | < 100 | < 100 | < 100 |
| O=C(CN1C(=O)CCc2ccccc21)Nc1scc(Br)c1-c1ncn[nH]1 [N-(4-bromo-3-(1H-1,2,4-triazol-5-yl)thiophen-2-yl)-2-(2-oxo-3,4-dihydroquinolin-1(2H)-yl)acetamide] | < 100 | < 100 | < 100 |
| O=C(Cn1c(=O)ccc2nc(C(F)(F)F)ccc21)Nc1scc(Br)c1-c1ncn[nH]1 [N-(4-bromo-3-(1H-1,2,4-triazol-5-yl)thiophen-2-yl)-2-(2-oxo-6-(trifluoromethyl)-1,5-naphthyridin-1(2H)-yl)acetamide] | < 100 | < 100 | < 100 |
| O=C(CN1C(=O)CCc2cc(C(F)(F)F)ccc21)Nc1scc(Br)c1-c1ncn[nH]1 [N-(4-bromo-3-(1H-1,2,4-triazol-5-yl)thiophen-2-yl)-2-(2-oxo-6-(trifluoromethyl)-3,4-dihydroquinolin-1(2H)-yl)acetamide] | < 100 | < 100 | < 100 |
| O=C(Cn1c(=O)ccc2cnc(C(F)(F)F)cc21)Nc1scc(Br)c1-c1ncn[nH]1 [N-(4-bromo-3-(1H-1,2,4-triazol-5-yl)thiophen-2-yl)-2-(2-oxo-7-(trifluoromethyl)-1,6-naphthyridin-1(2H)-yl)acetamide] | < 100 | < 100 | < 100 |
| O=C(Cn1c(=O)ccc2ccc(C(F)(F)F)cc21)Nc1scc(Br)c1-c1ncn[nH]1 [N-(4-bromo-3-(1H-1,2,4-triazol-5-yl)thiophen-2-yl)-2-(2-oxo-7-(trifluoromethyl)quinolin-1(2H)-yl)acetamide] | < 100 | < 100 | < 100 |
| O=C(Cn1c(=O)ccc2c(F)cccc21)Nc1scc(Br)c1-c1ncn[nH]1 [N-(4-bromo-3-(1H-1,2,4-triazol-5-yl)thiophen-2-yl)-2-(5-fluoro-2-oxoquinolin-1(2H)-yl)acetamide] | < 100 | < 100 | < 100 |
| O=C(Cn1c(=O)ccn2nc(C(F)(F)F)cc12)Nc1scc(Br)c1-c1ncn[nH]1 [N-(4-bromo-3-(1H-1,2,4-triazol-5-yl)thiophen-2-yl)-2-(5-oxo-2-(trifluoromethyl)pyrazolo[1,5-a]pyrimidin-4(5H)-yl)acetamide] | < 100 | < 100 | < 100 |
| O=C(Cn1c(=O)ccn2nccc12)Nc1scc(Br)c1-c1ncn[nH]1 [N-(4-bromo-3-(1H-1,2,4-triazol-5-yl)thiophen-2-yl)-2-(5-oxopyrazolo[1,5-a]pyrimidin-4(5H)-yl)acetamide] | < 100 | < 100 | < 100 |
| O=C(Cn1c(=O)ccc2cc(F)c(F)cc21)Nc1scc(Br)c1-c1ncn[nH]1 [N-(4-bromo-3-(1H-1,2,4-triazol-5-yl)thiophen-2-yl)-2-(6,7-difluoro-2-oxoquinolin-1(2H)-yl)acetamide] | < 100 | < 100 | < 100 |
| O=C(Cn1c(=O)ccc2cc(Cl)ccc21)Nc1scc(Br)c1-c1ncn[nH]1 [N-(4-bromo-3-(1H-1,2,4-triazol-5-yl)thiophen-2-yl)-2-(6-chloro-2-oxoquinolin-1(2H)-yl)acetamide] | < 100 | < 100 | < 100 |
| N#Cc1ccc2c(ccc(=O)n2CC(=O)Nc2scc(Br)c2-c2ncn[nH]2)c1 [N-(4-bromo-3-(1H-1,2,4-triazol-5-yl)thiophen-2-yl)-2-(6-cyano-2-oxoquinolin-1(2H)-yl)acetamide] | < 100 | < 100 | < 100 |
| C#Cc1ccc2c(ccc(=O)n2CC(=O)Nc2scc(Br)c2-c2ncn[nH]2)c1 [N-(4-bromo-3-(1H-1,2,4-triazol-5-yl)thiophen-2-yl)-2-(6-ethynyl-2-oxoquinolin-1(2H)-yl)acetamide] | < 100 | < 100 | < 100 |
| Cc1csc(NC(=O)Cc2cccc3ncccc23)c1-c1ncn[nH]1 [N-(4-methyl-3-(1H-1,2,4-triazol-5-yl)thiophen-2-yl)-2-(quinolin-5-yl)acetamide] | 100 to 10000 | – | – |
| O=C(Cn1c(=O)ccc2cc(C(F)(F)F)ccc21)Nc1sc(Cl)cc1-c1ncn[nH]1 [N-(5-chloro-3-(1H-1,2,4-triazol-5-yl)thiophen-2-yl)-2-(2-oxo-6-(trifluoromethyl)quinolin-1(2H)-yl)acetamide] | 100 to 10000 | 100 to 10000 | – |
